Experimental data as given in BindingDB's records for doi:10.1021/jm801306g (University of Alberta, 2009).

Legend:
Trypanothione reductase [1] = target: Trypanothione reductase (Trypanosoma brucei brucei, UniProt P39051); assay: TryR Enzyme Inhibition Assay
Experimental: (§1) Inhibition of TryR was carried out in 96-well plates using a Biotek Precision 2000 automated liquid handler. Reaction was initiated by addition of NADPH to the assay mixtures contained TryR , trypanothione disulfide substrate, and inhibitor (100 uM to 10 nM in 3-fold serial dilutions). […] Raw data was processed using Microsoft Excel. Grafit 5.0 (Erithacus software) was used to fit the data to a three-parameter equation to determine IC50 values. IC50 determinations were carried out in triplicate for each compound and the mean weighted to standard error calculated.

Trypanothione reductase [2] = target: Trypanothione reductase (Trypanosoma cruzi, UniProt P28593); assay: TryR Enzyme Inhibition Assay; settings: pH 7.5; 22 °C
Trypanothione reductase (Trypanosoma cruzi, UniProt P28593), sequence (P28593 whole entry): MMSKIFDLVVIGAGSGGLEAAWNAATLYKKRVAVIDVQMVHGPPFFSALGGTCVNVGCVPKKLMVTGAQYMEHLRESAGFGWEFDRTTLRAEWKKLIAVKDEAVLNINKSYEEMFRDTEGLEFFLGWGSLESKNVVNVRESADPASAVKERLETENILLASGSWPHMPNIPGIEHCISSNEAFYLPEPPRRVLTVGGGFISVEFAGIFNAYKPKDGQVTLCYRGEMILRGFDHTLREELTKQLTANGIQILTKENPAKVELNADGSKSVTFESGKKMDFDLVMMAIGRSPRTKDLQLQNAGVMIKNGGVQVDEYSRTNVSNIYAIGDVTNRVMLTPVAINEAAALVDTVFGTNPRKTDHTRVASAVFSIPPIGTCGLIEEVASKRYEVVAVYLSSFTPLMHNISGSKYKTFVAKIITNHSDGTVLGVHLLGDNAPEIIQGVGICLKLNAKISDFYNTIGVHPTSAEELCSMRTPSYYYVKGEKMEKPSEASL
Experimental: as §1

Trypanothione reductase (Trypanosoma brucei brucei, UniProt P39051), sequence (P39051 whole entry): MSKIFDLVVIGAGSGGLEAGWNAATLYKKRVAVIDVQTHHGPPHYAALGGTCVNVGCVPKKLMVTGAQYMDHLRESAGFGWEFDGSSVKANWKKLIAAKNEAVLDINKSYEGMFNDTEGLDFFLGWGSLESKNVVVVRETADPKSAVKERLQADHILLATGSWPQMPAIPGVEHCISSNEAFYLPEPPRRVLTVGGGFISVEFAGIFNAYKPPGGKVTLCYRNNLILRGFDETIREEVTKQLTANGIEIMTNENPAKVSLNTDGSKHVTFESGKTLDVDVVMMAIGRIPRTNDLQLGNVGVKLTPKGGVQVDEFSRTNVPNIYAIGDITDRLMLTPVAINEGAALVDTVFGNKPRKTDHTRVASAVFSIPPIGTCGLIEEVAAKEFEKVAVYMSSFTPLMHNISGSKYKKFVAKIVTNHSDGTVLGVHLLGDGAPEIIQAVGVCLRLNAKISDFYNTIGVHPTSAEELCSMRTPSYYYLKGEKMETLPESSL

C[N+]1(Cc2ccccc2)CCC(NC=C2C(=O)NC(=O)N(C3CCCCC3)C2=O)CC1 (configuration not stated) [1-benzyl-4-[(E)-[(1-cyclohexyl-2,4,6-trioxo-1,3-diazinan-5-yl)methylidene]amino]-1-methylpiperidin-1-ium] showed an IC50 (Trypanothione reductase [1]) of over 100 µM and an IC50 (Trypanothione reductase [2]) of 45.2 µM.
